Reference: article PMC5678437, “A new antagonist for CCR4 attenuates allergic lung inflammation in a mouse model of asthma” (Scientific Reports, 2017)

Legend:
HEK293-CCR4 cells = experiment: MTT assay; assay type: cell-based; settings: 1, 2, 4, 8, 16 μM, till the higher concentration (16 μM), 48 h
Protocol: pcDI-CCR4-transfected HEK293 cells, at the density of 800 cells /well, were plated overnight in 96-well plates. After plated overnight, different concentrations of compound 22 and compound 8a were added in cells and the final concentrations of these two compounds were: 1 μM, 2 μM, 4 μM, 8 μM and 16 μM. We set four wells for cells in each group which were incubated with each concentration of the compounds, and the cells were cultured for 48 h or 72 h. At 48 h or 72 h, 10 μl of the 5 mM MTT were added in cells and 100 μl of cell lysis buffer were added 4–6 h later. After added cell lysis buffer for an hour, microplate autoreader were used for measuring optical density (OD) of cells at 570 nm, and the ratio of OD in each group and that of DMSO group were valued as cell survival rates of each group.

[1] = tested on: OVA-induced asthmatic mice; experiment: Airway mucus production (PAS staining) in OVA-induced asthmatic mice; assay type: in vivo, BALB/c mice; settings: compound 8a 0.2, 1, 5 mg; budesonide 5 mg; vs vehicle treated group
Protocol: Male BALB/c 6 week old mice were purchased from the Experimental Animal Center of Zhejiang University. All mice were raised in a specific pathogen-free animal facility. All animal experiments were carried out according to the guidelines for the care and use of laboratory animals and were approved by the ethics committee of Zhejiang University and Peking University, China.
Mice were sensitized and challenged with chicken egg OVA (sigma-Aldrich, St Louis, MO, USA) as described in details previously. Briefly, after sensitized by intraperitoneal injection of 100 μl (80 μg) OVA in 100 μl alum (Pierce, Rockford, IL, USA) on days 0 and 14, mice were exposure to 1% OVA aerosols for 40 min on days 24–26. Control mice were injected intraperitoneally with saline and exposed to saline aerosols.
Compound 8a was dissolved in saline with DMSO (0.5%). Half an hour before each OVA challenge, the groups of mice treated with various doses of compound 8a (0.2, 1, 5 mg) inhaled aerosolized compound 8a for 45 min on days 24–26. Compound 8a aerosols were produced by using a Plexiglas chamber and ultrasonic nebulizer. […]
After sacrificed, the lungs were fixed in formalin overnight. […] Inflammation was scored according to published guidelines. And PAS-stained goblet cells in airway epithelium were quantified as described previously.

CCR2B = target: T1, CCR2B (Homo sapiens, UniProt P41597); experiment: Chemotaxis inhibition assay for receptor specificity, HEK293-CCR2B; assay type: cell-based; settings: 0.2, 1, 5, 25 μM, 30 min pretreatment
T1 construct: expressed in transfected cells; host or cells: HEK293, pcDB-CCR2B plasmid made in the authors' laboratory
T1 sequence (P41597 1-360 isoform P41597-2): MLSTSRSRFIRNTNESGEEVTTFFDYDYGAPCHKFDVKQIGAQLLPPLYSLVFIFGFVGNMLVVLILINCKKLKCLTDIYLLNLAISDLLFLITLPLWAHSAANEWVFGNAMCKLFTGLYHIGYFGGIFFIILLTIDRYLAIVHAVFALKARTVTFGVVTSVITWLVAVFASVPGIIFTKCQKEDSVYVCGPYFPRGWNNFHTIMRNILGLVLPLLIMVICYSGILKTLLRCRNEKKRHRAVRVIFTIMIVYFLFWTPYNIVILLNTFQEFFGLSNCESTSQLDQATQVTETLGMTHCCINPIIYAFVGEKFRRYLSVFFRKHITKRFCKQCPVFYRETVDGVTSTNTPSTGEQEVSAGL
Protocol: (§1) HEK293 cells were transfected with different chemokine receptors. The corresponding chemokines of different receptors were placed in the lower chambers. The transfected cells were pretreated with different concentrations of Compound 8a or 1‰ DMSO for 30 min at a density of 1 × 10^6 cells/ml and added to the upper chambers, the final concentration of the compound is: 0.2 μM, 1 μM, 5 μM, and 25 μM, respectively.

CCR1 [2] = target: T2, CCR1 (Homo sapiens, UniProt P32246); experiment: Chemotaxis assay for receptor specificity, HEK293-CCR1; assay type: cell-based; settings: compound as chemoattractant in lower chamber, 0.2, 1, 5, 25 μM
T2 construct: expressed in transfected cells; host or cells: HEK293; plasmid gift of Dr. Philip M. Murphy (NIAID, NIH)
T2 sequence (P32246 1-355): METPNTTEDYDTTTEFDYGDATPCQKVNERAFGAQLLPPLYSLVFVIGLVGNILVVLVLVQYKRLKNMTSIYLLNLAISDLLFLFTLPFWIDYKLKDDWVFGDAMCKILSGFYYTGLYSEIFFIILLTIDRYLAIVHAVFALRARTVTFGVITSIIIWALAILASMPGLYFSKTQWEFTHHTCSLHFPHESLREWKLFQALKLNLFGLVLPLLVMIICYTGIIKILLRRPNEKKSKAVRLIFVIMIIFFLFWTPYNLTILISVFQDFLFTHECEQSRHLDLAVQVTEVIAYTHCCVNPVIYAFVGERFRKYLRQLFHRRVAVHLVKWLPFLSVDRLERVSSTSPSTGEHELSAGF
Protocol: HEK293 cells were transfected with different chemokine receptors. Compound 8a with DMSO was diluted to 0.2 mM, 1 mM, 5 mM and 25 mM, and then we used RPMI 1640 medium containing 0.1% BSA for dilution. The final concentration is: 0.2 μM, 1 μM, 5 μM and 25 μM. DMSO was also diluted 1000-fold with 0.1% BSA RPMI 1640 medium. Chemokines was also diluted to an appropriate concentration. The dilutions of Compound 8a, 1‰ DMSO, the corresponding chemokines of different receptors and 0.1% BSA RPMI 1640 medium were placed in the lower chambers (27.5 μl/well). The transfected HEK293 cells were resuspended in the same medium at a density of 1 × 10^6 cells/ml and added to the upper chambers (55 μl/well).

CCR1 [3] = target: T2, CCR1; experiment: Chemotaxis inhibition assay for receptor specificity, HEK293-CCR1; assay type: cell-based; settings: 0.2, 1, 5, 25 μM, 30 min pretreatment
Protocol: as §1

CCR6 = target: T3, CCR6 (Homo sapiens, UniProt P51684); experiment: Chemotaxis inhibition assay for receptor specificity, HEK293-CCR6; assay type: cell-based; settings: 0.2, 1, 5, 25 μM, 30 min pretreatment
T3 construct: expressed in transfected cells; host or cells: HEK293, pcDI-CCR6 plasmid made in the authors' laboratory
T3 sequence (P51684 1-374): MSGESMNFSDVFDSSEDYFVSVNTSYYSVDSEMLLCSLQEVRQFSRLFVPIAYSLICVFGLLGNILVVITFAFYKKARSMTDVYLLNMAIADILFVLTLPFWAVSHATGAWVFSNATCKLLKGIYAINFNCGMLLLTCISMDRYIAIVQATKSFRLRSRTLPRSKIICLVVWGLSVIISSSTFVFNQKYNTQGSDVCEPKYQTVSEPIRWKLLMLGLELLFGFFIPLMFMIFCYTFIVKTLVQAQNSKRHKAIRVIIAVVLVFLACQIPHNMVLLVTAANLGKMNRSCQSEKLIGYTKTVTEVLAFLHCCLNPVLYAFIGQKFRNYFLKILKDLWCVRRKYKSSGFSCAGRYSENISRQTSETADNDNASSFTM
Protocol: as §1

## O=C(C1CCCCN1)N1CCN(c2nc(Cl)cc(NCc3ccc(Cl)cc3Cl)n2)CC1 (stereo not drawn) [compound 8a, {4-[4-Chloro-6-(2,4-dichloro-benzylamino)-pyrimidin-2-yl]-piperazin-1-yl}-piperidin-2-yl-methanone]
HEK293-CCR4 cells
  cytotoxicity (MTT): no obvious cytotoxicity
[1]
  airway mucus production (PAS-stained cells): no difference
CCR2B
  inhibition of chemotaxis of HEK293-CCR2B to its ligand: few influence
CCR1 [2]
  chemotaxis effect of the compound on HEK293-CCR1: didn’t exert chemotaxis effects
CCR1 [3]
  inhibition of chemotaxis of HEK293-CCR1 to its ligand: few influence
CCR6
  inhibition of chemotaxis of HEK293-CCR6 to its ligand: few influence
